Columns and labels:
[1] = tested on: F9-1-13 cells; test: Cell-based FRET reporter assay in F9-1-13 (SgAT) cells; set-up: species or system human
From the text: Transfection of pcDNA3VH-SgAT and pcDNA3VH-SnAT into U-138 cells (using methods described above) resulted initially in few colonies and FRET signal was lost in many clones during expansion, however, from among the various subclones the F9-1-13 (pcDNA3VH-SgAT transfected; ATCC No. PTA-84) and F10-24-2 (pcDNA3-SnAT transfected) subclones were eventually expanded and shown to express stable FRET signals. As desired, the FRET signal expressed in F9-1-13 decreased in response to both staurosporin and anti-Fas antibody treatment of cells, while the FRET signal expressed by the F10-24-2 control cells, (i.e., lacking a caspase substrate domain), was unaffected following staurosporin or anti-Fas antibody treatment. […] F9-1-13 therefore appeared suitable for microtiter assays, and perhaps use in HTS assays for screening to identify and select modulators of apoptosis.
Studies were initiated to adapt the experimental cell-based FRET assay of EXAMPLE 5 to a format suitable for use in high-throughput screening. First, the assay was scaled down from a 24-well to a 96-well plate format. Cells from three different F9 parental cultures were plated in a black-sided 96-well plates (Costar #3904) at a density of 32,000 cells/well (˜1×10^5 cells/cm^2); allowed to adhere overnight; and then the media was replaced with either 100 μl fresh media containing inducer (5 μM staurosporin in 0.25% DMSO vehicle) or 100 μl containing only vehicle (0.25% DMSO). After an overnight incubation, fluorescence measurements were made to evaluate FRET signal changes. […] The assay therefore appeared to be adaptable to a 96-well format but it was not initially clear how signal might be improved to increase the signal-to-background ratio.
A 96-well FRET assay was evaluated for inter-assay well variability and inter-plate variability. Possible signal drift during measurement of the FRET fluorescence signal was evaluated using one of two different robotics-compatible rapid fluorescence plate readers (SpeedReader or Cytofluor II). After plating at an initial density of about 60,000 cells/well, and overnight culture F9-1-13 cells were treated with 5 μM staurosporin, or vehicle. After an overnight incubation in staurosporin (i.e., 16-24 hrs.), the plates were either washed, or not washed, and then assayed repeatedly over the next 1.5 hours using either of the plate readers. […] However, using the same assay conditions but with anti-Fas antibody as an inducer, different results were recorded. […] The basis for the observed differences in measuring devices is not clear, but may relate to the design of the light source and/or the sensitivity of the detection circuitry in the two different respective fluorescence readers as well as possible different means for optically or digitally subtracting background incident radiation.
Assay Confirmation: The following experiment was performed to validate the ability of the 96-well FRET assay to detect inhibitors of apoptosis: namely, F9-1-13 cells (n=5 wells) were treated with 50-100 μM Z-VAD-fmk (a broad spectrum caspase inhibitor) or vehicle (n=55) in randomized wells of a 96-well plate. All of these wells, and six additional positive control wells (i.e., lacking the inhibitor), were treated with 5 μM staurosporine in 0.25% DMSO vehicle. Six negative control wells were treated with vehicle only (0.25% DMSO). After overnight incubation, FRET signal changes were evaluated as described above.
Three alternatives to staurosporine induction were evaluated: serum withdrawal; c2-ceramide treatment; and induction via engagement of the CD95/Fas receptor with anti-Fas antibody. […] To increase the proportion of adherent cells, poly-D-lysine and 0.1% gelatin were evaluated in anti-Fas antibody treated F9-1-13 cells. […] Anti-Fas antibody was therefore chosen as a preferred inducer of apoptosis for high-throughput screening. […]

[2] = tested on: U-138 cells; test: FRET signal in SAT-transfected U-138 cells; format: cell-based, human; settings: pcDNA3VH-SAT transfected U-138 parental cultures
From the text: Stable expression of the SAT reporter in U-138 cells was investigated by transfecting cultures with pcDNA3VH-SAT using calcium phosphate (Materials and Methods), and then selecting in medium containing G418 ([…]). […] The parental culture showing the strongest fluorescence and best growth characteristics was subcloned. Unexpectedly, the ability of the subclones to produce a staurosporin-inducible change in FRET signal was not stable, i.e., disappearing at passages 9, 11 and 13, but then reappearing at passage 16. While it was speculated that this phenomena may have resulted from some difference in expression and/or regulation of apoptosis or FRET reporter in sub-cultures of cells, these properties were not considered desirable and these SAT-transfected U-138 cell lines were discontinued in hopes that an improved reporter construct might solve the problem of irreproducibility.

[3] = tested on: F1-1-42 cells; test: Staurosporin-induced apoptosis in F1-1-42 SAT FRET reporter cells (FRET signal, western blot, caspase-3, morphology); format: cell-based, human
Procedure: Detecting Intracellular Changes in a FRET Reporter in Cells Undergoing Apoptosis: Having established that SAT reporter protein synthesized in HEK293 cells could be cleaved ex vivo, i.e., in cell lysates by trypsin (above), an initial in vivo intracellular assay was conducted using the selected F1-1-42 clonal cell line and staurosporin to induce apoptosis. […] In these experiments the F1-1-42 cells were plated at a density of 4×10^5 cells/0.5 ml in each well of a 24-well microtiter plate. After overnight incubation, apoptosis was induced by adding staurosporin to a final concentration of 5 μM, and using vehicle (0.25% DMSO) as a negative control. Assays for caspase-3 were used to confirm that apoptosis was induced. […] Subsequent testing determined that significant changes in FRET signal were first detectable at about 8 hours after addition of staurosporin and were maximal by 24 hrs post-induction.

## CN[C@@H]1C[C@H]2O[C@@](C)([C@@H]1OC)n1c3ccccc3c3c4c(c5c6ccccc6n2c5c31)C(=O)NC4 [staurosporin]
[1]; 96-well, three F9 parental cultures, 32,000 cells/well, 5 μM overnight
  FRET signal compared to the vehicle control: significant (P<0.05) reduction in the FRET signal
[1]; 60,000 cells/well, 5 μM, either fluorescence reader
  time to measurable changes in FRET signal: ≤ 4 h
[1]; F9-1-13 subclone
  FRET signal response to inducer treatment: decreased
[1]; staurosporin induction
  FRET reporter cleavage by western blot after induction: significant (but not complete) cleavage of reporter
[2]
  FRET signal change, correlated with FRET reporter cleavage in western blot: induced changes in FRET signal
[3]; 5 μM staurosporin
  SAT reporter cleavage by western analysis after induction: cleavage of the SAT reporter
  caspase-3 activity after induction: caspase-3 activation
[3]; 5 μM staurosporin, 24-well plate, 4×10^5 cells/0.5 ml
  FRET signal change after induction: concomitant decrease in FRET signal
[3]; after addition of staurosporin
  time at which significant changes in FRET signal were first detectable: about 8 hours
[3]; post-induction with staurosporin
  time at which FRET signal changes were maximal: ≤ 24 h

From patent publication US20020177120A1, “ASSAYS FOR APOTOSIS MODULATORS” (priority 1999, published 2002)
